{"source": "patent US4087390A", "about": "“Somatostatin analogs and intermediates thereto” (Eli Lilly and Company, priority 1977, dated 1978)", "key": {"glucagon secretion": {"system": "glucagon secretion", "test": "in vivo inhibition of glucagon secretion upon stimulation with insulin", "design": "species or system mongrel dogs", "details": "infused at a rate of 0.109 μg/kg/min.", "experimental": "D-Val^2, D-Trp^8 -somatostatin also was evaluated for in vivo activity in inhibiting glucagon secretion upon stimulation with insulin. Normal mongrel dogs of either sex were fasted overnight. After control blood samples had been obtained, an intravenous infusion of saline, somatostatin, or D-Val^2, D-Trp^8 -somatostatin was commenced. After 15 minutes, insulin, 0.3 units/kg., was injected intravenously. The infusion of saline, somatostatin, or the test compound was continued for two hours, and blood samples were obtained at various intervals throughout the test. The total dose of the somatostatin or test compound ranged from 120-260 μg./dog (0.07-0.13 μg/kg/min.). Administration of insulin produced a reduction in the blood glucose concentration of an increase in serum glucagon concentration."}, "gut motility": {"system": "gut motility", "test": "action on gut motility in conscious dogs (intralumenal pressure)", "format": "in vivo", "experimental": "D-Val^2, D-Trp^8 -somatostatin also was tested for its action on gut motility in conscious dogs. Three dogs having intralumenal catheters placed in the antrum, duodenum, and pylorus were used. Pressure changes in the gut lumen were recorded on a Visicorder using strain gauges and miniature light beam galvanometers. After a steady state control was established, D-Val^2, D-Trp^8 -somatostatin was infused intravenously over a ten minute period. […] The minimum effective dose required to increase the pyloric pressure and to decrease the duodenum and antrum pressures was >0.125 to <0.25 μg./kg.-10 minutes."}, "growth hormone secretion": {"system": "growth hormone secretion", "test": "release of growth hormone in sodium pentobarbital-stimulated rats", "format": "in vivo, Spraque-Dawley rats", "details": "subcutaneously, serum growth hormone 20 minutes after administration", "experimental": "D-Val^2, D-Trp^8 -somatostatin also was tested for its activity with respect to the release of growth hormone. The procedure which was employed is carried out using normal male Spraque-Dawley rats weighing 100-120 grams (Laboratory Supply Company, Indianapolis, Indiana). The test is a modification of the method of P. Brazeau, W. Vale, and R. Guilleman, Endocrinology, 94, 184 (1974). In this assay, five groups of eight rats each were employed. Sodium pentobarbital was administered intraperitoneally to all of the rats to stimulate growth hormone secretion. One group served as the control and received only saline. Two of the groups received somatostatin, one at 2 μg./rat, subcutaneously, and the other at 50 μg./rat, subcutaneously. The other two groups received D-Val^2, D-Trp^8 -somatostatin, one at 2 μg./rat, subcutaneously, and the other at 50 μg./rat, subcutaneously. The serum concentration of growth hormone was measured 20 minutes after simultaneous administration of sodium pentobarbital and test compound. The degree of inhibition of serum growth hormone concentration then was determined with respect to the control group, and the relative activities of D-Val^2, D-Trp^8 -somatostatin and somatostatin itself were compared. […]"}, "[1]": {"system": "gastric HCl secretion induced by the C-terminal tetrapeptide of gastrin", "test": "in vivo inhibition of gastric acid secretion in dogs with chronic fistula and Heidenhain pouch", "experimental": "D-Val^2, D-Trp^8 -somatostatin was tested in dogs for its in vivo inhibition of gastric acid secretion. In six dogs with chronic fistula and Heidenhain pouch, gastric HCl secretion was induced by infusion of the C-terminal tetrapeptide of gastrin at 0.5 μg/kg-hr. Each dog served as its own control, receiving on a separate day only the tetrapeptide. On another day, the six dogs received the tetrapeptide, and after one hour of steady state secretion of HCl, D-Val^2, D-Trp^8 -somatostatin was infused at 0.25 μg/kg-hr. for one hour. Collection of gastric acid samples was continued for an additional 1.5 hours at 15 minute intervals. The samples were titrated to pH 7 with an automatic titrator. The maximal inhibitory effect of the D-Val^2, D-Trp^8 -somatostatin was extrapolated against the dose-response curve of somatostatin, and the relative potency of the analog to that of somatostatin is expressed as percent activity. D-Val^2, D-Trp^8 -somatostatin inhibited steady state acid secretion induced by the C-terminal tetrapeptide of gastrin by 61.9 ± 3.4% standard error of mean. This effect is equivalent to that of 0.324 μg/kg-hr. of somatostatin. Its activity relative to that of somatostatin thus is 130%."}, "[2]": {"system": "glucagon and insulin secretion", "test": "in vivo inhibition of glucagon and insulin secretion upon stimulation with L-alanine", "design": "species or system mongrel dogs", "details": "intravenous infusion", "experimental": "D-Val^2, D-Trp^8 -somatostatin was tested for its in vivo activity in inhibiting glucagon and insulin secretion upon stimulation with L-alanine. Normal mongrel dogs of either sex were fasted overnight. Control blood samples were obtained, and then an intravenous infusion of saline, somatostatin, or D-Val^2, D-Trp^8 -somatostatin was started. After 30 minutes, L-alanine additionally was administered intravenously for a period of 15 minutes. The infusion of saline, somatostatin, or D-Val^2 D-Trp^8 -somatostatin was continued for 15 minutes after completion of the L-alanine infusion. The infusion of L-alanine caused an abrupt increase in serum concentration of glucagon and insulin which returned to control concentration upon termination of the L-alanine infusion. From the above it was determined that the minimal effective concentration of D-Val^2, D-Trp^8 -somatostatin is about 194 nanograms/kg./min. whereas the minimal effective concentration of somatostatin is 100-200 nanograms/kg./min."}, "[3]": {"system": "secretion from the pancreas induced by secretin and cholecystokinin", "test": "inhibition of pancreatic secretion in dogs with pancreatic and total gastric fistula", "format": "in vivo", "experimental": "In three dogs having both pancreatic and total gastric fistula, secretion from the pancreas was induced by infusion of secretin at 2 units/kg-hr. and cholecystokinin at 0.45 unit/kg-hr., and secretion of gastric HCl by infusion of tetragastrin at 0.5 μg/kg-hr. After a steady response was established, each dog received D-Val^2, D-Trp^8 -somatostatin for one hour at 0.25 μg/kg-hr. The peak inhibitory effect expressed as percent change over control for total protein was -72%. This corresponds to the inhibitory effect obtained by administration of about 0.5 μg/kg-hr. of somatostatin."}, "[4]": {"details": "intravenous infusion over ten minutes"}}, "note": "Bridge positions count the residues as written; N and C are the ends. Square brackets hold non-standard residues; d marks the D form. Peptide text beside a SMILES is read from it."}
{"smiles": "CC(C)[C@@H](NC(=O)[C@H](C)N)C(=O)N[C@H]1CSSC[C@@H](C(=O)O)NC(=O)[C@H](CO)NC(=O)[C@H]([C@@H](C)O)NC(=O)[C@H](Cc2ccccc2)NC(=O)[C@H]([C@@H](C)O)NC(=O)[C@H](CCCCN)NC(=O)[C@@H](Cc2c[nH]c3ccccc23)NC(=O)[C@H](Cc2ccccc2)NC(=O)[C@H](Cc2ccccc2)NC(=O)[C@H](CC(N)=O)NC(=O)[C@H](CCCCN)NC1=O", "note": "[D-Val^2, D-Trp^8 -somatostatin] (H-A[dV]CKNFF[dW]KTFTSC-OH; disulfide 3-14)", "values": [{"measurement": "effect on the rise in serum glucagon concentration produced by insulin hypoglycemia", "setting": "glucagon secretion", "result": "partial inhibition"}, {"measurement": "gut motility activity compared with somatostatin", "setting": "gut motility; based on minimum effective dose", "result": "approximately equivalent to that of somatostatin itself"}, {"measurement": "effect on intralumenal pressure in the pylorus", "setting": "gut motility; [4]", "result": "initially increased the intralumenal pressure in the pylorus and then decreased it"}, {"measurement": "effect on pressure in the duodenum and the antrum", "setting": "gut motility; [4]", "result": "remained depressed throughout the test"}, {"measurement": "inhibition of the increase in growth hormone secretion over control", "setting": "growth hormone secretion; 2 μg./rat", "result": 21, "unit": "%"}, {"measurement": "inhibition of the increase in growth hormone secretion over control", "setting": "growth hormone secretion; 50 μg./rat", "result": 88, "unit": "%"}, {"measurement": "dose of somatostatin of equivalent effect on gastric acid secretion", "setting": "[1]; effect of 0.25 μg/kg-hr. extrapolated against the dose-response curve of somatostatin", "result": 0.324, "unit": "μg/kg-hr."}, {"measurement": "activity relative to that of somatostatin (gastric acid secretion)", "setting": "[1]; relative potency expressed as percent activity", "result": 130, "unit": "%"}, {"measurement": "inhibition of steady state acid secretion induced by the C-terminal tetrapeptide of gastrin", "setting": "[1]; six dogs, infused at 0.25 μg/kg-hr. for one hour, maximal inhibitory effect, ± standard error of mean", "result": "61.9 ± 3.4", "unit": "%"}, {"measurement": "minimal effective concentration (inhibition of glucagon and insulin secretion)", "setting": "[2]", "result": "about 194 nanograms/kg./min."}, {"measurement": "dose of somatostatin giving the corresponding inhibitory effect on pancreatic secretion", "setting": "[3]; compared with 0.25 μg/kg-hr. of the analog", "result": "about 0.5 μg/kg-hr."}, {"measurement": "peak inhibitory effect expressed as percent change over control for total protein", "setting": "[3]; three dogs, 0.25 μg/kg-hr. for one hour", "result": -72, "unit": "%"}]}
